# From patent US20160176880A1, “SUBSTITUTED IMIDAZO[1,2-A]PYRAZINECARBOXAMIDES AND USE THEREOF” (BAYER PHARMA AKTIENGESELLSCHAFT, priority 2013, published 2016)
# Where a name gives a salt, the structure may show the parent alone.
# Molecular target: T1, recombinant guanylate cyclase reporter cell line (Rattus norvegicus, UniProt P19686+P20595)
# T1 construct: expressed in transfected cells
# T1 sequence (P19686 1-690): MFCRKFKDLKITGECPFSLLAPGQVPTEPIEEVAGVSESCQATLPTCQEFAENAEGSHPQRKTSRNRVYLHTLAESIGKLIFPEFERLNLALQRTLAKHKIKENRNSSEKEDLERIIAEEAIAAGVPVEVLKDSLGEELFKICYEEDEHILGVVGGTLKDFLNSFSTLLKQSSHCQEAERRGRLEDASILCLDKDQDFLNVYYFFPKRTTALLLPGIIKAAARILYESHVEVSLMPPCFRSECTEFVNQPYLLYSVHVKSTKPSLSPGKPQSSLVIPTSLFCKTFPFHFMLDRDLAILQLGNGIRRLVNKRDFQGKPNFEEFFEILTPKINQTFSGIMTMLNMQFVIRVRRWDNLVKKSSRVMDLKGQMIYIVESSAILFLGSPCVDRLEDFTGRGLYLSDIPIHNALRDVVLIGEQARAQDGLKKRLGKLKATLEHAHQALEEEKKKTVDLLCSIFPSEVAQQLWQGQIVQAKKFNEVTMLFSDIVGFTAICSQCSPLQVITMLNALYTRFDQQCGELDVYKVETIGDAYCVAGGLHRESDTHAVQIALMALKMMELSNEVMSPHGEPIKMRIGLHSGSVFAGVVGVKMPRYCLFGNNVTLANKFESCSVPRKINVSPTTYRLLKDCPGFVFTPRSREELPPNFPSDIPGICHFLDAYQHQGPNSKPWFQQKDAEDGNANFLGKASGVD
# T1 sequence (P20595 1-619): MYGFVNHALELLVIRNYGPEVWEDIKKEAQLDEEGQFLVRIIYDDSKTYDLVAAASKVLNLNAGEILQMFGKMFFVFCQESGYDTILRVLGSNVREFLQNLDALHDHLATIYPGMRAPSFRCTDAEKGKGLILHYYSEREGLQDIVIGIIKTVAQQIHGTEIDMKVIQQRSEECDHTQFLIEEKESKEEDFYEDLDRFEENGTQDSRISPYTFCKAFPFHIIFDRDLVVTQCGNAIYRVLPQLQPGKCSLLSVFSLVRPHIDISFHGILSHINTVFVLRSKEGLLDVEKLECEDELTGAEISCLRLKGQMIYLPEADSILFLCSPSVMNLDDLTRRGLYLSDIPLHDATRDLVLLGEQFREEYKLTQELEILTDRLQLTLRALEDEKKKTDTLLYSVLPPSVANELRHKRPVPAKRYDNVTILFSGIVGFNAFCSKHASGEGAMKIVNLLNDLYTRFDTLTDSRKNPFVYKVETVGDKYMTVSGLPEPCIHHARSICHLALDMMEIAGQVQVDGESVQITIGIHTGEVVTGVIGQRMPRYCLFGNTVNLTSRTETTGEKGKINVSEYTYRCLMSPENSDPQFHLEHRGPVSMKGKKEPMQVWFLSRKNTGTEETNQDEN
# Test: Effect on a recombinant guanylate cyclase reporter cell line
# Format: cell-based
# Conditions: MEC = minimum effective concentration; in some cases mean values for individual determinations
# Experimental: B-2. Effect on a Recombinant Guanylate Cyclase Reporter Cell Line
# The cellular action of the compounds of the invention is determined using a recombinant guanylate cyclase reporter cell line, as described in F. Wunder et al., Anal. Biochem. 339, 104-112 (2005).
# Representative MEC values (MEC=minimum effective concentration) for the compounds of the invention are shown in the table below (in some cases as mean values for individual determinations): […]
row,MEC,SMILES
1,1.0 µM,"Cc1cn2c(C(=O)NCC3CCC(C#N)CC3)c(C)nc2c(OCc2c(F)cccc2F)n1 (mixture of isomers) [Example 50, N-[(4-cyanocyclohexyl)methyl]-8-[(2,6-difluorobenzyl)oxy]-2,6-dimethylimidazo[1,2-a]pyrazine-3-carboxamide trifluoroacetate (cis/trans mixture)]"
2,1.0 µM,"Cc1cn2c(C(=O)NNC3CCCC3O)c(C)nc2c(OCc2c(F)cccc2F)n1 (mixture of isomers) [Example 54, 8-[(2,6-difluorobenzyl)oxy]-N′-(2-hydroxycyclopentyl)-2,6-dimethylimidazo[1,2-a]pyrazine-3-carbohydrazide trifluoroacetate (mixture of stereoisomers)]"
3,1 µM,"Cc1cn2c(C(=O)NCC(C)(N)CC(C)C)c(C)nc2c(OCc2c(F)cccc2F)n1 (racemic) [Example 5, rac-N-(2-Amino-2,4-dimethylpentyl)-8-[(2,6-difluorobenzyl)oxy]-2,6-dimethylimidazo[1,2-a]pyrazine-3-carboxamide]"
4,3 µM,"Cc1cn2c(C(=O)NC(C)C#N)c(C)nc2c(OCc2c(F)cccc2F)n1 (racemic) [Example 14, rac-N-(1-cyanoethyl)-8-[(2,6-difluorobenzyl)oxy]-2,6-dimethylimidazo[1,2-a]pyrazine-3-carboxamide]"
5,10 µM,"Cc1cn2c(C(=O)NC3CC3c3ccccc3)c(C)nc2c(OCc2c(F)cccc2F)n1 (racemic) [Example 17, rac-8-[(2,6-difluorobenzyl)oxy]-2,6-dimethyl-N-(2-phenylcyclopropyl)imidazo[1,2-a]pyrazine-3-carboxamide]"
6,3 µM,"Cc1cn2c(C(=O)NCC(C)(N)C3CC3)c(C)nc2c(OCc2c(F)cccc2F)n1 (racemic) [Example 20, rac-N-(2-amino-2-cyclopropylpropyl)-8-[(2,6-difluorobenzyl)oxy]-2,6-dimethylimidazo[1,2-a]pyrazine-3-carboxamide]"
7,3 µM,"Cc1cn2c(C(=O)NC(C)c3nc(C(F)(F)F)no3)c(C)nc2c(OCc2c(F)cccc2F)n1 (racemic) [Example 26, rac-8-[(2,6-difluorobenzyl)oxy]-2,6-dimethyl-N-{1-[3-(trifluoromethyl)-1,2,4-oxadiazol-5-yl]ethyl}imidazo[1,2-a]pyrazine-3-carboxamide]"
8,3 µM,"Cc1cn2c(C(=O)NC(C)COCC(F)(F)F)c(C)nc2c(OCc2c(F)cccc2F)n1 (racemic) [Example 31, rac-8-[(2,6-difluorobenzyl)oxy]-2,6-dimethyl-N-[1-(2,2,2-trifluoroethoxy)propan-2-yl]imidazo[1,2-a]pyrazine-3-carboxamide]"
9,10 µM,"Cc1cn2c(C(=O)NC(C#N)c3ccc(Cl)cc3)c(C)nc2c(OCc2c(F)cccc2F)n1 (racemic) [Example 46, rac-N-[(4-chlorophenyl)(cyano)methyl]-8-[(2,6-difluorobenzyl)oxy]-2,6-dimethylimidazo[1,2-a]pyrazine-3-carboxamide]"
10,0.65 µM,"Cc1cn2c(C(=O)NCC(C)(N)CC(F)F)c(C)nc2c(OCc2c(F)cccc2F)n1 (single isomer, unassigned; enantiomer a) [Example 41, ent-N-(2-Amino-4,4-difluoro-2-methylbutyl)-8-[(2,6-difluorobenzyl)oxy]-2,6-dimethylimidazo[1,2-a]pyrazine-3-carboxamide (enantiomer A)]"
11,0.3 µM,"Cc1cn2c(C(=O)NCC(C)(N)CF)c(C)nc2c(OCc2c(F)cccc2F)n1 (single isomer, unassigned; enantiomer b) [Example 37, ent-N-(2-Amino-3-fluoro-2-methylpropyl)-8-[(2,6-difluorobenzyl)oxy]-2,6-dimethylimidazo[1,2-a]pyrazine-3-carboxamide (enantiomer B)]"
12,0.3 µM,"Cc1cn2c(C(=O)NCC(C)(N)CCC(F)(F)F)c(C)nc2c(OCc2c(F)cccc2F)n1 (single isomer, unassigned; enantiomer b) [Example 38, ent-N-(2-Amino-5,5,5-trifluoro-2-methylpentyl)-8-[(2,6-difluorobenzyl)oxy]-2,6-dimethylimidazo[1,2-a]pyrazine-3-carboxamide (enantiomer B)]"
13,0.2 µM,"CCCC(C)(N)CNC(=O)c1c(C)nc2c(OCc3c(F)cccc3F)nc(C)cn12 (single isomer, unassigned; enantiomer b) [Example 39, ent-N-(2-Amino-2-methylpentyl)-8-[(2,6-difluorobenzyl)oxy]-2,6-dimethylimidazo[1,2-a]pyrazine-3-carboxamide (enantiomer B)]"
14,0.3 µM,"Cc1cn2c(C(=O)NCC(C)(N)CCCF)c(C)nc2c(OCc2c(F)cccc2F)n1 (single isomer, unassigned; enantiomer b) [Example 40, ent-N-(2-Amino-5-fluoro-2-methylpentyl)-8-[(2,6-difluorobenzyl)oxy]-2,6-dimethylimidazo[1,2-a]pyrazine-3-carboxamide (enantiomer B)]"
15,0.3 µM,"Cc1cn2c(C(=O)NCC(C)(N)CC(F)F)c(C)nc2c(OCc2c(F)cccc2F)n1 (single isomer, unassigned; enantiomer b) [Example 42, ent-N-(2-Amino-4,4-difluoro-2-methylbutyl)-8-[(2,6-difluorobenzyl)oxy]-2,6-dimethylimidazo[1,2-a]pyrazine-3-carboxamide (enantiomer B)]"
16,3 µM,"Cc1cn2c(C(=O)NC(CCCC(F)(F)F)C(C)(C)O)c(C)nc2c(OCc2c(F)cccc2F)n1 (single isomer, unassigned; ent-8) [Example 6, ent-8[(2,6-Difluorobenzyl)oxy]-2,6-dimethyl-N-(7,7,7-trifluoro-2-hydroxy-2-methylheptan-3-yl)imidazo[1,2-a]pyrazine-3-carboxamide]"
17,0.3 µM,"CCCCC(NC(=O)c1c(C)nc2c(OCc3c(F)cccc3F)nc(C)cn12)C(C)(C)O (single isomer, unassigned; ent-8) [Example 7, ent-8[(2,6-Difluorobenzyl)oxy]-N-(2-hydroxy-2-methylheptan-3-yl)-2,6-dimethylimidazo[1,2-a]pyrazine-3-carboxamide]"
18,1 µM,"Cc1cn2c(C(=O)NC(CCC(F)(F)C(F)(F)F)C(C)(C)O)c(C)nc2c(OCc2c(F)cccc2F)n1 (single isomer, unassigned; ent-8) [Example 29, ent-8-[(2,6-difluorobenzyl)oxy]-2,6-dimethyl-N-(6,6,7,7,7-pentafluoro-2-hydroxy-2-methylheptan-3-yl)imidazo[1,2-a]pyrazine-3-carboxamide]"
19,0.77 µM,"CC[C@](C)(N)CNC(=O)c1c(C)nc2c(OCc3c(F)cccc3F)nc(C)cn12 [Example 1, ent-N-[(2S)-2-Amino-2-methylbutyl]-8-[(2,6-difluorobenzyl)oxy]-2,6-dimethylimidazo[1,2-a]pyrazine-3-carboxamide]"
20,1 µM,"CCCC[C@H](C)NC(=O)c1c(C)nc2c(OCc3c(F)cccc3F)nc(C)cn12 [Example 2, 8-[(2,6-Difluorobenzyl)oxy]-N-[(2S)-hexan-2-yl]-2,6-dimethylimidazo[1,2-a]pyrazine-3-carboxamide]"
21,3 µM,"CCCC[C@H](CO)NC(=O)c1c(C)nc2c(OCc3c(F)cccc3F)nc(C)cn12 [Example 3, 8-[(2,6-Difluorobenzyl)oxy]-N-[(2R)-1-hydroxyhexan-2-yl]-2,6-dimethylimidazo[1,2-a]pyrazine-3-carboxamide]"
22,1 µM,"Cc1cn2c(C(=O)NC3(c4ccc(F)c(F)c4)CC3)c(C)nc2c(OCc2c(F)cccc2F)n1 [Example 4, 8-[(2,6-Difluorobenzyl)oxy]-N-[1-(3,4-difluorophenyl)cyclopropyl]-2,6-dimethylimidazo[1,2-a]pyrazine-3-carboxamide]"
